Test results from PMC7271024, “N1-Benzofused Modification of Fluoroquinolones Reduces Activity Against Gram-Negative Bacteria” (ACS Omega, 2020).
Converted amounts (≈) assume the structure as drawn.

How the values were obtained:
K. pneumoniae M6 = assay: MIC, microdilution broth method; assay type: cell-based, Klebsiella pneumoniae; conditions: for potentiation of MIC by PMBN: MIC –PMBN vs +PMBN; for MIC: Klebsiella pneumoniae, ciprofloxacin-sensitive strain (S)
A. baumannii ATCC 17978 = assay: MIC, microdilution broth method; assay type: cell-based, Acinetobacter baumannii; conditions: for MIC: Acinetobacter baumannii, ciprofloxacin-sensitive strain (S); for potentiation of MIC by PMBN: MIC –PMBN vs +PMBN
A. baumannii AYE = assay: MIC, microdilution broth method; assay type: cell-based, Acinetobacter baumannii; conditions: for MIC: Acinetobacter baumannii
Protocol: (§1) The antibacterial activities of the synthesized fluoroquinolones were evaluated against a panel of Gram-negative pathogens including K. pneumoniae (NCTC 13368, M6), Acinetobacter baumannii (AYE, ATCC 17978), Pseudomonas aeruginosa (PAO1, NCTC 13437), and Escherichia coli (NCTC 12923, LEC001). The ability of molecules to permeate the Gram-negative outer membrane was investigated by adding membrane permeabilizer polymyxin B nonapeptide (PMBN) at sub-inhibitory concentrations (Table 2). Phenylalanine–arginine β-naphthylamide (PAβN) was used to investigate efflux of compounds by resistance–nodulation–division (RND)-family efflux pumps (Table 3).
(§2) Minimal inhibitory concentrations (MICs) were determined using the microdilution broth method. Briefly, compounds were added to the first two columns of a 96-well plate and diluted two-fold down the plate in tryptic soy broth. Overnight cultures of bacteria were then adjusted to a concentration of 1 × 10^6 CFU/mL and added to each well for a final concentration of 5 × 10^5 CFU/mL.

P. aeruginosa PAO1 = assay: MIC, microdilution broth method; assay type: cell-based, Pseudomonas aeruginosa; conditions: for potentiation of MIC by PMBN: MIC –PMBN vs +PMBN; for MIC: Pseudomonas aeruginosa, ciprofloxacin-sensitive strain (S)
P. aeruginosa NCTC 13437 = assay: MIC, microdilution broth method; assay type: cell-based, Pseudomonas aeruginosa; conditions: for MIC: Pseudomonas aeruginosa; for potentiation of MIC by PMBN: MIC –PMBN vs +PMBN
Protocol: as §1, §2

E. coli NCTC 12923 = assay: MIC, microdilution broth method; assay type: cell-based, Escherichia coli; conditions: for MIC: Escherichia coli, ciprofloxacin-sensitive strain (S)
E. coli LEC001 = assay: MIC, microdilution broth method; assay type: cell-based, Escherichia coli; conditions: for MIC: Escherichia coli
Protocol: as §1, §2

K. pneumoniae NCTC 13368 = assay: MIC, microdilution broth method; assay type: cell-based, Klebsiella pneumoniae; conditions: for MIC: Klebsiella pneumoniae, ciprofloxacin-resistant strain (R); for potentiation of MIC by PMBN: MIC –PMBN vs +PMBN
Protocol: as §1, §2

[1] = system: panel of Gram-negative pathogens; assay: MIC panel, statements across strains; assay type: cell-based, K. pneumoniae, A. baumannii, P. aeruginosa, E. coli; conditions: versus ciprofloxacin
Protocol: as §1, §2

[2] = Solubility as observed in the MIC and enzyme experiments; assay type: physicochemical; conditions: evidenced when undertaking the MIC experiments
Protocol: In vitro activity assays using purified S. aureus, E. coli and P. aeruginosa DNA gyrase, and S. aureus topoisomerase IV enzymes were performed in order to evaluate whether the gains in inhibitory activity predicted for the benzofused compounds were accurate. The benzothiophene-containing 6e was selected as a representative compound for the purposes of this experiment. […].
A general correlation between N1 substituent hydrophobicity and activity is observed; […].

[3] = PAβN, text names A. baumannii only
[4] = +PMBN (30 μg/mL), ciprofloxacin-resistant strain (R)
[5] = –PMBN, ciprofloxacin-resistant strain (R)
[6] = NCTC13437, +PMBN (30 μg/mL), ciprofloxacin-resistant strain (R)
[7] = NCTC13437, –PMBN, ciprofloxacin-resistant strain (R)
[8] = LEC001, +PMBN (30 μg/mL), ciprofloxacin-resistant strain (R)
[9] = LEC001, –PMBN, ciprofloxacin-resistant strain (R)

SMILES	potentiation of MIC by PMBN (K. pneumoniae M6)	MIC (A. baumannii ATCC 17978; ATCC17978, +PMBN (30 μg/mL))	MIC (A. baumannii ATCC 17978; ATCC17978, –PMBN)	potentiation of MIC by PMBN (A. baumannii ATCC 17978)	MIC (A. baumannii AYE; [4])	MIC (A. baumannii AYE; [5])	potentiation of MIC by PMBN (P. aeruginosa PAO1)	MIC (P. aeruginosa NCTC 13437; [6])	MIC (P. aeruginosa NCTC 13437; [7])	MIC (E. coli NCTC 12923; NCTC12923, +PMBN (30 μg/mL))	MIC (E. coli NCTC 12923; NCTC12923, –PMBN)	MIC (E. coli LEC001; [8])	MIC (E. coli LEC001; [9])	MIC (K. pneumoniae M6; M6, +PMBN (30 μg/mL))	MIC (K. pneumoniae M6; M6, –PMBN)	MIC (K. pneumoniae NCTC 13368; NCTC13368, +PMBN (30 μg/mL))	MIC (K. pneumoniae NCTC 13368; NCTC13368, –PMBN)	MIC (P. aeruginosa PAO1; PAO1, +PMBN (30 μg/mL))	MIC (P. aeruginosa PAO1; PAO1, –PMBN)	antibacterial activity [1]	also measured
O=C(O)c1cn(C2CC2)c2cc(N3CCNCC3)c(F)cc2c1=O [Compound 6a, ciprofloxacin, reference compound]	1 fold	0.5 µg/mL (≈ 1.51 µM)	0.5 µg/mL (≈ 1.51 µM)	1–2 fold	> 32 µg/mL	> 32 µg/mL	4–16 fold	16 µg/mL (≈ 48.3 µM)	> 32 µg/mL	0.03 to 0.06 µg/mL (≈ 0.0905 to 0.181 µM)	≤ 0.03 µg/mL	32 µg/mL (≈ 96.6 µM)	16 µg/mL (≈ 48.3 µM)	–	–	–	–	–	–	–	effect of PAβN on MIC (K. pneumoniae M6; RND-family efflux inhibitor PAβN): not evident; effect of PAβN on MIC (A. baumannii ATCC 17978; [3]): Neither ciprofloxacin nor compound 6e showed any difference in MIC; MIC (A. baumannii AYE; +PAβN (25 μg/mL), Table 3, strain R): > 32 µg/mL; MIC (A. baumannii AYE; –PAβN, Table 3, strain R): 32 µg/mL (≈ 96.6 µM); effect of PAβN on MIC (A. baumannii AYE; [3]): Neither ciprofloxacin nor compound 6e showed any difference in MIC; MIC (P. aeruginosa NCTC 13437; NCTC13437, +PAβN (25 μg/mL), Table 3, strain R): 16 µg/mL (≈ 48.3 µM); MIC (P. aeruginosa NCTC 13437; NCTC13437, –PAβN, Table 3, strain R): 32 µg/mL (≈ 96.6 µM); effect of PAβN on MIC (E. coli NCTC 12923; PAβN, text names E. coli only): No effect; MIC (E. coli LEC001; LEC001, +PAβN (25 μg/mL), Table 3, strain R): 32 µg/mL (≈ 96.6 µM); MIC (E. coli LEC001; LEC001, –PAβN, Table 3, strain R): 16 µg/mL (≈ 48.3 µM); effect of PAβN on MIC (E. coli LEC001; PAβN, text names E. coli only): No effect
CCn1cc(C(=O)O)c(=O)c2cc(F)c(N3CCNCC3)cc21 [Compound 6b, norfloxacin, reference compound]	1 fold	4 µg/mL (≈ 12.5 µM)	8 µg/mL (≈ 25.1 µM)	1–2 fold	> 32 µg/mL	> 32 µg/mL	4–16 fold	32 µg/mL (≈ 100 µM)	> 32 µg/mL	0.125 µg/mL (≈ 0.391 µM)	0.125 µg/mL (≈ 0.391 µM)	> 32 µg/mL	> 32 µg/mL	0.5 µg/mL (≈ 1.57 µM)	0.25 to 0.5 µg/mL (≈ 0.783 to 1.57 µM)	2 µg/mL (≈ 6.26 µM)	4 µg/mL (≈ 12.5 µM)	0.5 µg/mL (≈ 1.57 µM)	2 to 4 µg/mL (≈ 6.26 to 12.5 µM)	–	potentiation of MIC by PMBN (K. pneumoniae NCTC 13368): 2 fold
O=C(O)c1cn(Cc2ccccc2)c2cc(N3CCNCC3)c(F)cc2c1=O [Compound 6c]	–	4 µg/mL (≈ 10.5 µM)	4 to 8 µg/mL (≈ 10.5 to 21 µM)	–	> 32 µg/mL	> 32 µg/mL	–	32 µg/mL (≈ 83.9 µM)	> 32 µg/mL	0.5 µg/mL (≈ 1.31 µM)	1 to 2 µg/mL (≈ 2.62 to 5.24 µM)	> 32 µg/mL	> 32 µg/mL	1 µg/mL (≈ 2.62 µM)	1 µg/mL (≈ 2.62 µM)	4 µg/mL (≈ 10.5 µM)	16 µg/mL (≈ 41.9 µM)	0.5 µg/mL (≈ 1.31 µM)	8 µg/mL (≈ 21 µM)	limited activity	–
O=C(O)c1cn(-c2cccc3ccoc23)c2cc(N3CCNCC3)c(F)cc2c1=O [Compound 6d]	2–4 fold	1 µg/mL (≈ 2.45 µM)	2 µg/mL (≈ 4.91 µM)	2 fold	> 32 µg/mL	> 32 µg/mL	–	32 µg/mL (≈ 78.5 µM)	> 32 µg/mL	0.25 µg/mL (≈ 0.614 µM)	1 µg/mL (≈ 2.45 µM)	> 32 µg/mL	> 32 µg/mL	0.5 µg/mL (≈ 1.23 µM)	1 to 2 µg/mL (≈ 2.45 to 4.91 µM)	2 µg/mL (≈ 4.91 µM)	16 µg/mL (≈ 39.3 µM)	0.5 µg/mL (≈ 1.23 µM)	8 to 16 µg/mL (≈ 19.6 to 39.3 µM)	limited activity	potentiation of MIC by PMBN (K. pneumoniae NCTC 13368): 4–8 fold
O=C(O)c1cn(Cc2cccc3ccoc23)c2cc(N3CCNCC3)c(F)cc2c1=O [Compound 6f]	–	> 128 µg/mL	> 128 µg/mL	–	> 128 µg/mL	> 128 µg/mL	over 8 fold	32 µg/mL (≈ 75.9 µM)	> 128 µg/mL	32 µg/mL (≈ 75.9 µM)	> 128 µg/mL	> 32 µg/mL	> 32 µg/mL	> 128 µg/mL	> 128 µg/mL	> 128 µg/mL	> 128 µg/mL	16 µg/mL (≈ 38 µM)	> 128 µg/mL	almost complete loss of activity	potentiation of MIC by PMBN (P. aeruginosa NCTC 13437): over 8 fold; solubility profile [2]: poor solubility profiles
O=C(O)c1cn(Cc2cccc3ccsc23)c2cc(N3CCNCC3)c(F)cc2c1=O [Compound 6g]	–	> 128 µg/mL	> 128 µg/mL	–	> 128 µg/mL	> 128 µg/mL	over 8 fold	16 µg/mL (≈ 36.6 µM)	> 128 µg/mL	128 µg/mL (≈ 293 µM)	> 128 µg/mL	> 32 µg/mL	> 32 µg/mL	> 128 µg/mL	> 128 µg/mL	> 128 µg/mL	> 128 µg/mL	32 µg/mL (≈ 73.1 µM)	> 128 µg/mL	almost complete loss of activity	potentiation of MIC by PMBN (P. aeruginosa NCTC 13437): over 8 fold; solubility profile [2]: poor solubility profiles
